Assay results from US11110105B2, “Compounds, composition and uses thereof for treating cancer” (INSTITUT GUSTAVE ROUSSY, priority 2017, dated 2021).
Entries after “also recorded” stand apart in the source; their conditions may differ.

Columns and labels:
[1] = test system: splicing of the Globin-SL8-intron gene product in MCA205 cells; test: qRT-PCR of unspliced/spliced globin-SL8-intron RNA, MCA205; assay type: cell-based, mouse; conditions: 15 μM isoginkgetin, 35 μM IP2 or 35 μM M2P2, 48 hours
Description: RNA was extracted and qRT-PCR was performed with primers amplifying the unspliced (intron) and the spliced (exon) globin-SL8-intron RNA. Data are given as mean ±SEM of the ratio of 2^−ΔΔCt intron and 2^−ΔΔCt exon of at least three independent experiments. […] Data are express as mean ±SEM of the percentage of viable cells compared to the control condition of at least three independent experiments. *P<0.05, **P<0.01, ***P<0.001 (unpaired student t test).
In addition, it has been shown that cancer cells can acquire deficiencies in the splicing machinery that benefit their growth, for example by preventing the expression of tumor suppressor genes.

[2] = MTT assay on A549 cell line; assay type: cell-based; conditions: human, A549 lung carcinoma cells, read-out: % cell viability (±SEM)
Description: MCA205 mouse sarcoma cell line is cultured at 37° C. under 5% CO2 in RPMI 1640 medium (Life Technologies) in the presence of 1% glutamine, 1% sodium pyruvate, 1% non-essential amino-acids, 1% penicillin/streptomycin and 10% FBS (Life Technologies) under standard conditions. B16F10 mouse melanoma cell line, MRC5 human fibroblast cell line and A375 human melanoma cell line are cultured at 37° C. under 5% CO2 in DMEM medium (Life Technologies) containing 1% glutamine, 1% penicillin/streptomycin and 10% FCS under standard conditions. A549 human lung carcinoma cell line is cultured at 37° C. under 5% CO2 in DMEM/F12+Glutamax I in the presence of 1% Hepes, 1% sodium pyruvate and 10% FBS under standard conditions. Stable MCA205-Globin-SL8-intron cell line are cultured under the same condition as MCA205 cell line with additional 2 mg/ml G418 (geneticin from Life Technologies) for selection. Stable B16F10-Globin-SL8-intron cell line are cultured under the same condition as B16F10 cell line with additional 2 mg/ml G418 (geneticin from Life Technologies) for selection. The SL8/Kb-specific (B3Z) T-cell reporter hybridoma are cultured at 37° C. under 5% CO2 in RPMI 1640 medium (Life Technologies) in the presence of 1% glutamine, 0.1% β-galactosidase, 1% penicillin/streptomycin and 10% FCS under standard conditions. […]

B16F10 WT tumors = test: Tumor challenge, B16F10 WT in immunodeficient Nu/Nu nude mice; assay type: in vivo, mouse; conditions: 18 mg/kg intraperitoneally, days 5, 10 and 15
Description: (§1) (A) Experimental settings. Growth of (B) sarcoma MCA205 or (C) melanoma B16F10 cells that both stably express the globin-SL8-intron construct or (D) MCA205 Wild Type (WT) or (E) B16F10 WT cells that were subcutaneously inoculated on the flank of immunocompetent C57BL/6 mice injected intraperitoneally with 12 mg/kg or 18 mg/kg of isoginkgetin at days 5, 10 and 15 after inoculation. Tumor size was assessed every 3 to 4 days until reaching the established ethical endpoints. Each line represents the tumor size in area (mm^2) of 6 mice in each group. Size in area (mm^2) of (F) MCA205 globin-SL8-intron, (G) B16F10 globin-SL8-intron, (H) MCA205 WT or (I) B16F10 WT tumors subcutaneously inoculated on the flank of immunodeficient Nu/Nu Nude mice injected intraperitoneally with 18 mg/kg of isoginkgetin at days 5, 10 and 15 after inoculation. Data are presented at the day before the endpoints are reached.
(§2) Each line represents the tumor size in area (mm^2) of at least 6 mice in each group. The C right panel represents the tumor size at day 27. […]
(§3) Inventors then assessed the requirement of the immune response for isoginkgetin to reduce tumor growth Immunodeficient Nu/Nu nude mice were inoculated subcutaneously with either MCA205 or B16F10 cells that stably express the Globin-intron-SL8 or WT, and were treated with the same settings as previously described (FIG. 9A). […]

[3] = test system: B16F10 globin-SL8-intron tumors; test: Tumor challenge, B16F10 globin-SL8-intron in immunodeficient Nu/Nu nude mice; assay type: in vivo, mouse; conditions: 18 mg/kg intraperitoneally, days 5, 10 and 15
Description: as §1, §2, §3

MCA205 WT tumors = test: Tumor challenge, MCA205 WT in immunodeficient Nu/Nu nude mice; assay type: in vivo, mouse; conditions: 18 mg/kg intraperitoneally, days 5, 10 and 15
Description: as §1, §2, §3

[4] = MTT viability, human cells (text summary of table 1); assay type: cell-based; conditions: concentrations used (2.5 and 6.25 μM), A375, A549, MRC5, read-out: viability of human cells upon treatment
Source text: Cancer cells display different intracellular mechanisms that can shape the pool and the quantity of peptides presented on MHC class I (MHC-I) molecules at their surface, leading to reduction of their antigenicity and escape of T-cell recognition. Inventors have shown that PTPs are a major source of peptides for the endogenous MHC-I pathway in vitro. In addition, they have provided the first proof of the positive impact of splicing inhibition on PTPs-dependent antigen presentation by treating HEK cells with the splicing inhibitor isoginkgetin. The latter has been reported to inhibit the spliceosome during the early stages of its assembly. In view to improve antigenicity and immune recognition of cancer cell lines, inventors determined whether isoginkgetin was able to modulate positively the expression and the presentation of tumor associated PTPs-derived antigens (TA-PTPs) at cancer cells surface. For that purpose, the human melanoma cell line A375, the human lung cancer cell line A549 and the normal human fibroblast lung cell line MRC5 were transiently expressing the MHC-I H2-K^b molecule and the PTPs-SL8 epitope from an intron within the β-Globin gene construct (Globin-SL8-intron) and treated with different concentrations of isoginkgetin for 18 h. […]

Structure (SMILES)	splicing of Globin-SL8-intron RNA (ratio unspliced/spliced, qRT-PCR) [1]	viability at 2.5 µM ([2]; A549, 2.5 μM) [%]	viability at 6.25 µM ([2]; A549, 6.25 μM) [%]	tumor growth (B16F10 WT tumors)	tumor growth [3]	tumor growth (MCA205 WT tumors)	viability [4] [%]
COc1ccc(-c2cc(=O)c3c(OC)cc(OP(=O)([O-])[O-])c(-c4cc(-c5cc(=O)c6c(OC)cc(OP(=O)([O-])[O-])cc6o5)ccc4OC)c3o2)cc1.[Na+].[Na+].[Na+].[Na+] [IM2P2]	has a strong impact on splicing; also recorded: strongly inhibits the splicing						
COc1ccc(-c2cc(=O)c3c(O)cc(O)c(-c4cc(-c5cc(=O)c6c(O)cc(O)cc6o5)ccc4OC)c3o2)cc1 [Isoginkgetin, isoginkgetin]		100	84	No effect	No effect	No effect	> 80
